The record followed here is patent EP1675855B1, “4-AMINO-QUINOLINE OUINOLIZIDINYL-AND QUINOLIZIDINYLALKYL-DERIVATIVES WITH ANTIMALARIAL ACTIVITY” (Need Pharmaceuticals S.r.l., priority 2003, dated 2005).

SMILES strings stand for the structures.

What is called IC50 is the concentration that gives 50% inhibition. A lower IC50 goes with greater potency.

For assay [1], the system named is chloroquine-resistant P. falciparum strains. Briefly: microbe, parasite or virus in culture. The settings on record: Plasmodium falciparum. The procedure: (§1) The compounds of the invention were tested in vitro on chloroquine-sensitive and chloroquine-resistant strains of P. falciparum. […] Parasites' growth was evaluated with a colorimetric assay for pLDH at 72 hours.

The subject of assay [2] is chloroquine-sensitive P. falciparum strains. Briefly: microbe, parasite or virus in culture. The settings on record: Plasmodium falciparum. The procedure: as §1

For the compound `CCN(CC)CCCC(C)Nc1ccnc2cc(Cl)ccc12` (centres unmarked) [chloroquine, 7-chloro-4-(4-diethylamino-1-methylbutylamino)quinoline], the results for the IC50 in assay [1] and in assay [2] were 150 to 300 nM and 27.8 ± 9 nM, respectively.
